Measurements as given in patent publication US11414416B1, “Compounds and uses thereof” (Foghorn Therapeutics Inc., priority 2019, dated 2022).
Where two headings read alike, the source gives them in different places.

Target: Nanoluciferase-BRD9 fusion protein (Homo sapiens (Human), UniProt Q9H8M2)
Assay: SYO1 BRD9 NanoLuc degradation assay
Assay type: cell-based
Conditions: SYO-1 cells expressing 3×FLAG-NLuc-BRD9, 6 hours; for DC50: read-out: SYO1 BRD9-NanoLuc degradation IC50
How it was run: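 Degradation was read as loss of nanoluciferase signal (Nano-Glo) after 6 h compound exposure in a stable SYO-1 line carrying 3×FLAG-NLuc-BRD9 (8000 cells/well). Normalised between DMSO (high) and a 1 μM known BRD9 degrader (low).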

Sequence of Nanoluciferase-BRD9 fusion protein (Q9H8M2 whole entry, the tested form may be a part): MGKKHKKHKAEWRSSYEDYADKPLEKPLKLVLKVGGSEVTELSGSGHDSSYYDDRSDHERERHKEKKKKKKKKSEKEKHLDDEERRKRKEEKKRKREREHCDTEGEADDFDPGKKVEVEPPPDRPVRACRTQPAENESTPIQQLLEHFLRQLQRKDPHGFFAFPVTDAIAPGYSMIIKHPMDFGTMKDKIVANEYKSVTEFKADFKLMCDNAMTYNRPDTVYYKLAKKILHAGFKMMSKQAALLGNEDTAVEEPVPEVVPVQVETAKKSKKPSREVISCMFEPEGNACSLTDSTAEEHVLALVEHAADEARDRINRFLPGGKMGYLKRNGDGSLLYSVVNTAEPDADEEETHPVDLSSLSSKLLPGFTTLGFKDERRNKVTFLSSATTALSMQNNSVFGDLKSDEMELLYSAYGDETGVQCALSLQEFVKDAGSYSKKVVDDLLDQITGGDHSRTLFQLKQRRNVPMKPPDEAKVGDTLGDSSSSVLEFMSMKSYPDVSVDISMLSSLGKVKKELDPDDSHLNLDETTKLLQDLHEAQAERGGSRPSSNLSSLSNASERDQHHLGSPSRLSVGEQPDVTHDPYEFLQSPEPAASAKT

| SMILES | DC50 (Table 5B) [nM] | other results |
| --- | --- | --- |
| COc1cc(-c2c(C)n(C)c(=O)c3[nH]cc(C)c23)cc(OC)c1CN1CCC2(CC1)CN(c1ccc3c(c1)C(=O)N(C1CCC(=O)NC1=O)C3=O)C2 (stereo not drawn) [Compound D445] |  | DC50 (Table 5C): > 1000 nM |
| COc1cc(-c2cn(C)c(=O)c3cnccc23)cc(OC)c1CN1CC(CC(=O)N2CC3(CCN(c4ccc5c(c4)C(=O)N(C4CCC(=O)NC4=O)C5=O)C3)C2)C1 (stereo not drawn) [Compound D181] | 100 to 1000 |  |
| COc1cc(-c2cn(C)c(=O)c3nn(C)cc23)cc(OC)c1CN1CCC2(CC1)CN(c1ccc3c(c1)C(=O)N(C1CCC(=O)NC1=O)C3)C2 (stereo not drawn) [Compound D421] |  | DC50 (Table 5C): < 10 nM |
| COc1cc(-c2cn(C)c(=O)c3cnccc23)cc(OC)c1CN1CC(CC(=O)N2CC3(CCC(Oc4ccc5c(c4)C(=O)N(C4CCC(=O)NC4=O)C5=O)C3)C2)C1 (stereo not drawn) [Compound D183] | 100 to 1000 |  |
| COc1cc(-c2cn(C)c(=O)c3cnccc23)cc(OC)c1CN(C)CCCn1cc(COCCOc2ccc3c(c2)C(=O)N(C2CCC(=O)NC2=O)C3=O)nn1 (stereo not drawn) [Compound D284] | 10 to 100 |  |
| COc1cc(-c2cn(C)c(=O)c3cnccc23)cc(OC)c1CN(C)CCn1cc(CCOc2ccc3c(c2)C(=O)N(C2CCC(=O)NC2=O)C3=O)nn1 (stereo not drawn) [Compound D274] | < 10 |  |
| COc1cc(-c2cn(C)c(=O)c3cnccc23)cc(OC)c1CN(C)CCOCCn1cc(CN2CC(Oc3ccc4c(c3)C(=O)N(C3CCC(=O)NC3=O)C4=O)C2)nn1 (stereo not drawn) [Compound D294] | 100 to 1000 |  |
| COc1cccc(OC)c1CN1CCC2(CC1)CN(c1ccc3c(c1)C(=O)N(C1CCC(=O)NC1=O)C3)C2 (stereo not drawn) [DD12] |  | DC50 (Table 5C): > 1000 nM |
| COc1cc(-c2cn(C)c(=O)c3cnccc23)cc(OC)c1CN1CCC(c2nc(COc3ccc4c(c3)C(=O)N(C3CCC(=O)NC3=O)C4=O)cs2)CC1 (stereo not drawn) [Compound D321] | < 10 |  |
| COc1cc(-c2cn(C)c(=O)c3cnccc23)cc(OC)c1CN1CC(CC(=O)N2CCC3(CC(Oc4ccc5c(c4)C(=O)N([C@@H]4CCC(=O)NC4=O)C5=O)C3)C2)C1 (stereo partly drawn) [Compound D266] | 10 to 100 |  |
| COc1cc(-c2cn(C)c(=O)c3cnccc23)cc(OC)c1CN(C)C(=O)CCCCNC1CC12CCN(c1ccc3c(c1)C(=O)N(C1CCC(=O)NC1=O)C3=O)C2 (stereo not drawn) [Compound D258] | < 10 |  |
| COc1cc(-c2cn(C)c(=O)c3cnccc23)cc(OC)c1CN(C)CCCCN1CC2(CCN(c3ccc4c(c3)C(=O)N(C3CCC(=O)NC3=O)C4=O)CC2)C1 (stereo not drawn) [Compound D223] | < 10 |  |
| COc1cc(-c2cn(C)c(=O)c3cnccc23)cc(OC)c1CN1CC2(CCN(C(=O)CC#Cc3ccc4c(c3)C(=O)N(C3CCC(=O)NC3=O)C4=O)CC2)C1 (stereo not drawn) [Compound D312] | < 10 |  |
| COc1cc(-c2cn(C)c(=O)c3cnccc23)cc(OC)c1CN1CC(n2cc(COc3ccc4c(c3)C(=O)N(C3CCC(=O)NC3=O)C4=O)nn2)C1 (stereo not drawn) [Compound D297] | < 10 |  |
| COc1cc(-c2cn(C)c(=O)c3cnccc23)cc(OC)c1CN(C)CCCCN1CCC2(CCN(c3ccc4c(c3)C(=O)N(C3CCC(=O)NC3=O)C4=O)C2)C1 (stereo not drawn) [Compound D225] | < 10 |  |
| COc1cc(-c2cc(C(F)F)c(=O)n(C)c2C)cc(OC)c1CN1CCC2(C1)CN(c1ccc3c(c1)C(=O)N(C1CCC(=O)NC1=O)C3)C2 (stereo not drawn) [Compound D409] |  | DC50 (Table 5C): < 10 nM |
| COc1cc(-c2cn(C)c(=O)c3cnccc23)cc(OC)c1CN1CC[C@H]1C(=O)NCCCCCCCCNc1cccc2c1C(=O)N([C@H]1CCC(=O)NC1=O)C2=O [Compound D19, (2S)-1-((2,6-dimethoxy-4-(2-methyl-1-oxo-2,7-naphthyridin-4-yl)phenyl)methyl)-N-(8-((2-((S)-2,6-dioxopiperidin-3-yl)-1,3-dioxoisoindol-4-yl)amino)octyl) azetidine-2-carboxamide] |  | DC50 (Table 5A): < 10 nM |
| COc1cc(-c2cn(C)c(=O)c3cnccc23)cc(OC)c1CN1CC(CC(=O)N2CC(Oc3ccc4c(c3)C(=O)N(C3CCC(=O)NC3=O)C4=O)C2)C1 (stereo not drawn) [Compound D233] | 100 to 1000 |  |
| COc1cc(-c2cn(C)c(=O)c3cnccc23)cc(OC)c1CN1CC(CC(=O)N2CCCC3(CC(Oc4ccc5c(c4)C(=O)N([C@@H]4CCC(=O)NC4=O)C5=O)C3)C2)C1 (stereo partly drawn) [Compound D264] | 10 to 100 |  |
| COc1cc(-c2cn(C)c(=O)c3cnccc23)cc(OC)c1CN1CCC(n2cc(COC3CN(c4ccc5c(c4)C(=O)N(C4CCC(=O)NC4=O)C5=O)C3)nn2)CC1 (stereo not drawn) [Compound D291] | < 10 |  |
| COc1cc(-c2cn(C)c(=O)c3cnccc23)cc(OC)c1CN1CC2(CCN(C(=O)C#Cc3ccc4c(c3)C(=O)N(C3CCC(=O)NC3=O)C4=O)CC2)C1 (stereo not drawn) [Compound D198] | < 10 |  |
| COc1cc(-c2cn(C)c(=O)c3cnccc23)cc(OC)c1CN1CCC2(CC1)CN(c1ccc3c(c1)C(=O)N(C1CCC(=O)NC1=O)C3=O)C2 (stereo not drawn) [Compound D373] |  | DC50 (Table 5C): < 10 nM |
| COc1cc(-c2cn(C)c(=O)c3cnccc23)cc(OC)c1CN(C)CCCn1cc(CN2CC(Oc3ccc4c(c3)C(=O)N(C3CCC(=O)NC3=O)C4=O)C2)nn1 (stereo not drawn) [Compound D285] | 100 to 1000 |  |
| COc1cc(-c2cc(C)c(=O)n(C)c2)cc(OC)c1CN1CC(C)(C#Cc2ccc3c(c2)C(=O)N(C2CCC(=O)NC2=O)C3)C1 (stereo not drawn) [Compound D450] |  | IC50 (Table 5C): < 10 nM |

| SMILES | DC50 (Table 5B) [nM] | other results |
| --- | --- | --- |
| COc1cc(-c2cn(C)c(=O)c3cnccc23)cc(OC)c1CN1CCC2C(C1)CN2C(=O)C#Cc1ccc2c(c1)C(=O)N(C1CCC(=O)NC1=O)C2=O (stereo not drawn) [Compound D242] | < 10 |  |
| COc1cc(-c2cn(C)c(=O)c3cnccc23)cc(OC)c1CN1CC2(CC(C(=O)NCCCCCCCCNc3cccc4c3C(=O)N(C3CCC(=O)NC3=O)C4=O)C2)C1 (stereo not drawn) [Compound D20] |  | DC50 (Table 5A): < 10 nM |
| COc1cc(-c2cc(C(F)(F)F)c(=O)n(C)c2)cc(OC)c1CN1CCC(CCN2CCN(c3ccc4c(c3)C(=O)N(C3CCC(=O)NC3=O)C4=O)CC2)CC1 (stereo not drawn) [Compound D328] | < 10 |  |
| COc1cc(-c2cn(C)c(=O)c3[nH]ccc23)cc(OC)c1CN1CCC2(CC1)CN(c1ccc3c(c1)C(=O)N(C1CCC(=O)NC1=O)C3=O)C2 (stereo not drawn) [Compound D340] | < 10 |  |
| COc1cc(-c2cn(C)c(=O)c3cnccc23)cc(OC)c1CN(C)C(=O)CCCCNC1CC2(CCN(c3ccc4c(c3)C(=O)N(C3CCC(=O)NC3=O)C4=O)CC2)C1 (stereo not drawn) [Compound D256] | < 10 |  |
| COc1cc(-c2cn(C)c(=O)c3[nH]ncc23)cc(OC)c1CN1CCC2(CC1)CN(c1ccc3c(c1)C(=O)N(C1CCC(=O)NC1=O)C3)C2 (stereo not drawn) [Compound D433] |  | DC50 (Table 5C): < 10 nM |
| COc1cc(-c2cc(C)c(=O)n(C)c2)cc(OC)c1CN1CC(CCc2ccc3c(c2)C(=O)N(C2CCC(=O)NC2=O)C3)C1 (stereo not drawn) [Compound D448] |  | DC50 (Table 5C): < 10 nM |
| COc1cc(-c2cn(C)c(=O)c3cnccc23)cc(OC)c1CN(C)CCCCN1CCCC2(CC(Oc3ccc4c(c3)C(=O)N([C@@H]3CCC(=O)NC3=O)C4=O)C2)C1 (stereo partly drawn) [Compound D244] | < 10 |  |
| COc1cc(-c2cn(C)c(=O)c3cnccc23)cc(OC)c1CN(C)CCOCCn1cc(COCCOc2ccc3c(c2)C(=O)N(C2CCC(=O)NC2=O)C3=O)nn1 (stereo not drawn) [Compound D293] | 10 to 100 |  |
| COc1cc(-c2cc(C)c(=O)n(C)c2)cc(OC)c1CN1CCC(n2cc([C@H](C)Oc3ccc4c(c3)C(=O)N(C3CCC(=O)NC3=O)C4=O)nn2)CC1 (stereo partly drawn) [Compound D333] | < 10 |  |
| COc1cc(-c2cn(C)c(=O)c3cn(C)nc23)cc(OC)c1CN1CC(CN2CCC3(CC2)CN(c2ccc4c(c2)CN(C2CCC(=O)NC2=O)C4=O)C3)C1 (stereo not drawn) [Compound D370] | < 10 |  |
| COc1cc(-c2cn(C)c(=O)c3cnccc23)cc(OC)c1CN(C)CCCCNC1CCC12CN(c1ccc3c(c1)C(=O)N(C1CCC(=O)NC1=O)C3=O)C2 (stereo not drawn) [Compound D245] | 10 to 100 |  |
| COc1cc(-c2cc(C)c(=O)n(C)c2C)cc(OC)c1CN1CCN(c2ccc3c(c2)C(=O)N(C2CCC(=O)NC2=O)C3)CC1 (stereo not drawn) [Compound D427] |  | DC50 (Table 5C): < 10 nM |
| COc1cc(-c2cn(C)c(=O)c3cnccc23)cc(OC)c1CN1CCC2(CC1)CCN(CC#Cc1ccc3c(c1)C(=O)N(C1CCC(=O)NC1=O)C3=O)C2 (stereo not drawn) [Compound D308] | < 10 |  |
| COc1cc(-c2cc(C)c(=O)n(C)c2)cc(OC)c1CN1CCC(C#Cc2ccc3c(c2)C(=O)N(C2CCC(=O)NC2=O)C3)C1 (stereo not drawn) [Compound D442] |  | DC50 (Table 5C): < 10 nM |
| COc1cc(-c2cn(C)c(=O)c3[nH]cnc23)cc(OC)c1CN1CCC2(CC1)CN(c1ccc3c(c1)C(=O)N(C1CCC(=O)NC1=O)C3)C2 (stereo not drawn) [Compound D434] |  | DC50 (Table 5C): < 10 nM |
| COc1cc(-c2cn(C)c(=O)c3cnccc23)cc(OC)c1CN(C)CCOCCn1cc(CCOc2ccc3c(c2)C(=O)N(C2CCC(=O)NC2=O)C3=O)nn1 (stereo not drawn) [Compound D292] | 100 to 1000 |  |
| COc1cc(-c2cn(C)c(=O)c3ccccc23)cc(OC)c1CN1CC(CN2CCC3(CC2)CN(c2ccc4c(c2)CN(C2CCC(=O)NC2=O)C4=O)C3)C1 (stereo not drawn) [Compound D360] | < 10 |  |
| COc1cc(-c2cn(C)c(=O)c3cnccc23)cc(OC)c1CN(C)C(=O)CCCCN1CC2(CCN(c3ccc4c(c3)C(=O)N(C3CCC(=O)NC3=O)C4=O)CC2)C1 (stereo not drawn) [Compound D201] | < 10 |  |
| COc1cc(-c2cn(C)c(=O)c3cnccc23)cc(OC)c1CN1CC(n2cc(CCOc3ccc4c(c3)C(=O)N(C3CCC(=O)NC3=O)C4=O)nn2)C1 (stereo not drawn) [Compound D298] | < 10 |  |
| COc1cc(-c2cn(C)c(=O)c3cncn23)cc(OC)c1CN1CCC2(CC1)CN(c1ccc3c(c1)C(=O)N(C1CCC(=O)NC1=O)C3)C2 (stereo not drawn) [Compound D428] |  | DC50 (Table 5C): < 10 nM |
| COc1cc(-c2cn(C)c(=O)c3cnccc23)cc(OC)c1CN(C)CCCCN1CC2(C1)CN(c1ccc3c(c1)C(=O)N(C1CCC(=O)NC1=O)C3=O)C2 (stereo not drawn) [Compound D254] | < 10 |  |
| COc1cc(-c2cn(C)c(=O)c3cnccc23)cc(OC)c1CN1CCC2C(C1)CN2CC#Cc1ccc2c(c1)C(=O)N(C1CCC(=O)NC1=O)C2=O (stereo not drawn) [Compound D236] | < 10 |  |
| COc1cc(-c2cn(C)c(=O)c3cnccc23)cc(OC)c1CN(C)C(=O)CCCCN1CCCC2(CC(Oc3ccc4c(c3)C(=O)N([C@@H]3CCC(=O)NC3=O)C4=O)C2)C1 (stereo partly drawn) [Compound D261] | < 10 |  |
